Laboratory results taken from patent US20190263796A1, “LIM KINASE INHIBITORS, PHARMACEUTICAL COMPOSITION AND METHOD OF USE IN LIMK-MEDIATED DISEASES” (CELLIPSE, priority 2016, published 2019).
pIC50: −log10 of the molar value.

Legend:
P-MEK/Total MEK = test: Western blot MEK1 phosphorylation, Kasumi-1; assay type: cell-based; settings: Kasumi-1 cells
Procedure: Cells were maintained at 37° C. with 5% CO2.
In a 6 wells plate (Falcon 353046), 2·10^6 cells in 1.5 mL medium are treated for 2 h with compounds. Cells are then collected and cell lysis is performed at 4° C. using RIPA buffer supplemented with protease inhibitors cocktail (Sigma-Aldrich P8340) and phosphatase inhibitors cocktail (Sigma-Aldrich P5726). Following centrifugation 30 min 15000 g 4° C., supernatants are mixed with Laemmli buffer and denaturation is performed by heating 5 min 95° C. 10 μL of samples are subjected to electrophoresis on 15% SDS-PAGE. After electro-transfer (Mini Transblot, Bio-Rad), the PVDF membrane (Merck-Millipore Immobilon P IPVH00010) is blocked with Tris Buffered Saline, pH 7.4 (TBS) with 0.1% Tween 20 and 5% BSA for 1 h at room temperature under agitation. The membrane was rinsed 3 times 10 min at room temperature under agitation with TBS, 0.1% Tween-20 (TBST) and then 1 h at room temperature with anti-phospho-Ser218/222-MEK1 (Merck-Millipore 07-461, 1/1000 dilution) antibody or anti-MEK1 (Merck-Millipore 07-641, 1/1000 dilution) diluted in TBS, 0.1% Tween 20 and 1% BSA. The membrane is then rinsed 3 times 10 min RT under agitation in TBST and incubated for 1 h with anti-rabbit secondary antibody, horseradish peroxidase conjugated (Jackson Immunoresearch #711-036-152) under agitation at room temperature. After three washes 10 min at room temperature in TBST, the detection of total or phosphorylated cofilin was performed using chemiluminescence kit ECL™ Plus (GE Healthcare RPN2132). For each concentration of compound, ratio between phosphorylated cofilin and total cofilin is determined. This ratio is then expressed as percentage of control ratio (i.e., ratio from DMSO treated cells). IC50 P-MEK/Total MEK is then determined.
Selectivity ratios are calculated by dividing the IC50 P-MEK/Total MEK value (μM) by the IC50 Phospho-Ser3-Cofilin/Total Cofilin value (μM).

[1] = biological target: T1, recombinant human LIMK2 fragment 1-638 (Homo sapiens, UniProt P53671); test: LIMK2 kinase assay (Compound 1), anti-phospho-Ser3-cofilin detection; assay type: biochemical; settings: 360 μM ATP; GST-cofilin 1 substrate; chemiluminescence detection
T1 construct: recombinant human LIMK2 fragment 1-638; 6His (N); purchased Carna Biosciences 09-106
Procedure: Compounds were tested in a LIMK2 assay performed in a final volume of 12.5 μl containing 1.5 μl of compound or equivalent amount of DMSO as control, 1 μl (6.25 ng) of N-terminal 6His-tagged recombinant human LIMK2 fragment 1-638 (Carna Biosciences #09-106, in 20 mM MOPS pH=7.0, 1 mM EDTA, 0.01% NP-40, 5% glycerol, 0.1% 2-mercaptoethanol, 1 mg·mL^−1 Bovine Serum Albumin) and a mixture containing 8 mM MOPS pH=7.0, 200 μM EDTA, 110 μM of recombinant GST-cofilin 1, 10 mM MgCl2, and 360 μM ATP. Assays were performed at 30° C. for 10 min before termination by the addition of 40 μl of Laemmli buffer. Samples are then diluted into 1500 μL H2O and 100 μL are then diluted with 200 μL TBS. 5 μL are then spotted on a PVDF membrane (Merck-Millipore Immobilon P IPVH00010). After 20 min incubation RT, membrane was blocked with TBS, 0.1% Tween 20 and 5% BSA for 1 h RT under agitation. The membrane was rinsed 3 times 10 min RT under agitation with TBS, 0.1% Tween-20 (TBST) and then 1 h RT with anti-phospho-Ser3-cofilin (Cell Signaling Technology #3313, 1/1000 dilution) antibody diluted in TBS, 0.1% Tween 20 and 1% BSA. The membrane is then rinsed 3 times 10 min RT under agitation in TBST and incubated for 1 hour with anti-rabbit secondary antibody, horseradish peroxidase conjugated (Jackson Immunoresearch #711-036-152) under agitation at room temperature. […] IC50 LIMK2 is then determined.

BTK(h) = biological target: T2, BTK(h) (Homo sapiens, UniProt Q06187); test: KinaseProfiler panel: BTK(h); assay type: biochemical; settings: residual activity, 5 μM inhibitor, Km ATP
T2 construct: purchased Merck-Millipore (KinaseProfiler panel service)
Procedure: (§1) Kinase selectivity was performed on a panel of 58 recombinant protein kinases. The assays were performed in the presence of 5 μM inhibitor at the respective Km ATP for each kinase, using the KinaseProfiler panel service (Merck-Millipore). Residual activity measured in the presence of […] inhibitor is expressed as the percent of activity determined in the absence of inhibitor.

cKit(D816V)(h) = biological target: T3, cKit(D816V)(h) (Homo sapiens, UniProt P10721, D816V); test: KinaseProfiler panel: cKit(D816V)(h); assay type: biochemical; settings: residual activity, 5 μM inhibitor, Km ATP
T3 construct: purchased Merck-Millipore (KinaseProfiler panel service)
Procedure: as §1

cKit(D816H)(h) = biological target: T4, cKit(D816H)(h) (Homo sapiens, UniProt P10721, D816H); test: KinaseProfiler panel: cKit(D816H)(h); assay type: biochemical; settings: residual activity, 5 μM inhibitor, Km ATP
T4 construct: purchased Merck-Millipore (KinaseProfiler panel service)
Procedure: as §1

c-RAF(h) = biological target: T5, c-RAF(h) (Homo sapiens, UniProt P04049); test: KinaseProfiler panel: c-RAF(h); assay type: biochemical; settings: residual activity, 5 μM inhibitor, Km ATP
T5 construct: purchased Merck-Millipore (KinaseProfiler panel service)
Procedure: as §1

FGFR1(h) = biological target: T6, FGFR1(h) (Homo sapiens, UniProt P11362); test: KinaseProfiler panel: FGFR1(h); assay type: biochemical; settings: residual activity, 5 μM inhibitor, Km ATP
T6 construct: purchased Merck-Millipore (KinaseProfiler panel service)
Procedure: as §1

Flt1(h) = biological target: T7, Flt1(h) (Homo sapiens, UniProt P17948); test: KinaseProfiler panel: Flt1(h); assay type: biochemical; settings: residual activity, 5 μM inhibitor, Km ATP
T7 construct: purchased Merck-Millipore (KinaseProfiler panel service)
Procedure: as §1

IGF-1R(h), activated = biological target: T8, IGF-1R(h), activated (Homo sapiens, UniProt P08069); test: KinaseProfiler panel: IGF-1R(h), activated; assay type: biochemical; settings: residual activity, 5 μM inhibitor, Km ATP
T8 construct: purchased Merck-Millipore (KinaseProfiler panel service)
Procedure: as §1

IKKα(h) = biological target: T9, IKKα(h) (Homo sapiens, UniProt O15111); test: KinaseProfiler panel: IKKα(h); assay type: biochemical; settings: residual activity, 5 μM inhibitor, Km ATP
T9 construct: purchased Merck-Millipore (KinaseProfiler panel service)
Procedure: as §1

LKB1(h) = biological target: T10, LKB1(h) (Homo sapiens, UniProt Q15831); test: KinaseProfiler panel: LKB1(h); assay type: biochemical; settings: residual activity, 5 μM inhibitor, Km ATP
T10 construct: purchased Merck-Millipore (KinaseProfiler panel service)
Procedure: as §1

MEK1(h) = biological target: T11, MEK1(h) (Homo sapiens, UniProt Q02750); test: KinaseProfiler panel: MEK1(h); assay type: biochemical; settings: residual activity, 5 μM inhibitor, Km ATP
T11 construct: purchased Merck-Millipore (KinaseProfiler panel service)
Procedure: as §1

MKK4(m) = biological target: T12, MKK4(m) (Mus musculus, UniProt P47809); test: KinaseProfiler panel: MKK4(m); assay type: biochemical; settings: residual activity, 5 μM inhibitor, Km ATP
T12 construct: purchased Merck-Millipore (KinaseProfiler panel service)
Procedure: as §1

MRCKα(h) = biological target: T13, MRCKα(h) (Homo sapiens, UniProt Q5VT25); test: KinaseProfiler panel: MRCKα(h); assay type: biochemical; settings: residual activity, 5 μM inhibitor, Km ATP
T13 construct: purchased Merck-Millipore (KinaseProfiler panel service)
Procedure: as §1

MRCKβ(h) = biological target: T14, MRCKβ(h) (Homo sapiens, UniProt Q9Y5S2); test: KinaseProfiler panel: MRCKβ(h); assay type: biochemical; settings: residual activity, 5 μM inhibitor, Km ATP
T14 construct: purchased Merck-Millipore (KinaseProfiler panel service)
Procedure: as §1

p70S6K(h) = biological target: T15, p70S6K(h) (Homo sapiens, UniProt P23443); test: KinaseProfiler panel: p70S6K(h); assay type: biochemical; settings: residual activity, 5 μM inhibitor, Km ATP
T15 construct: purchased Merck-Millipore (KinaseProfiler panel service)
Procedure: as §1

PAK1(h) = biological target: T16, PAK1(h) (Homo sapiens, UniProt Q13153); test: KinaseProfiler panel: PAK1(h); assay type: biochemical; settings: residual activity, 5 μM inhibitor, Km ATP
T16 construct: purchased Merck-Millipore (KinaseProfiler panel service)
Procedure: as §1

PAK4(h) = biological target: T17, PAK4(h) (Homo sapiens, UniProt O96013); test: KinaseProfiler panel: PAK4(h); assay type: biochemical; settings: residual activity, 5 μM inhibitor, Km ATP
T17 construct: purchased Merck-Millipore (KinaseProfiler panel service)
Procedure: as §1

PAK3(h) = biological target: T18, PAK3(h) (Homo sapiens, UniProt O75914); test: KinaseProfiler panel: PAK3(h); assay type: biochemical; settings: residual activity, 5 μM inhibitor, Km ATP
T18 construct: purchased Merck-Millipore (KinaseProfiler panel service)
Procedure: as §1

Plk3(h) = biological target: T19, Plk3(h) (Homo sapiens, UniProt Q9H4B4); test: KinaseProfiler panel: Plk3(h); assay type: biochemical; settings: residual activity, 5 μM inhibitor, Km ATP
T19 construct: purchased Merck-Millipore (KinaseProfiler panel service)
Procedure: as §1

SAPK2a(h) = biological target: T20, SAPK2a(h) (Homo sapiens, UniProt Q16539); test: KinaseProfiler panel: SAPK2a(h); assay type: biochemical; settings: residual activity, 5 μM inhibitor, Km ATP
T20 construct: purchased Merck-Millipore (KinaseProfiler panel service)
Procedure: as §1

TrkA(h) = biological target: T21, TrkA(h) (Homo sapiens, UniProt P04629); test: KinaseProfiler panel: TrkA(h); assay type: biochemical; settings: residual activity, 5 μM inhibitor, Km ATP
T21 construct: purchased Merck-Millipore (KinaseProfiler panel service)
Procedure: as §1

TrkC(h) = biological target: T22, TrkC(h) (Homo sapiens, UniProt Q16288); test: KinaseProfiler panel: TrkC(h); assay type: biochemical; settings: residual activity, 5 μM inhibitor, Km ATP
T22 construct: purchased Merck-Millipore (KinaseProfiler panel service)
Procedure: as §1

B-Raf(h) = B-Raf(h) (Homo sapiens, UniProt P15056); test: KinaseProfiler panel: B-Raf(h); assay type: biochemical; design: purchased Merck-Millipore (KinaseProfiler panel service); settings: residual activity, 5 μM inhibitor, Km ATP
Procedure: as §1

LIMK1(h) = LIMK1(h) (Homo sapiens, UniProt P53667); test: KinaseProfiler panel: LIMK1(h); assay type: biochemical; design: purchased Merck-Millipore (KinaseProfiler panel service); settings: residual activity, 5 μM inhibitor, Km ATP
Procedure: as §1

T19 sequence (Q9H4B4 whole entry): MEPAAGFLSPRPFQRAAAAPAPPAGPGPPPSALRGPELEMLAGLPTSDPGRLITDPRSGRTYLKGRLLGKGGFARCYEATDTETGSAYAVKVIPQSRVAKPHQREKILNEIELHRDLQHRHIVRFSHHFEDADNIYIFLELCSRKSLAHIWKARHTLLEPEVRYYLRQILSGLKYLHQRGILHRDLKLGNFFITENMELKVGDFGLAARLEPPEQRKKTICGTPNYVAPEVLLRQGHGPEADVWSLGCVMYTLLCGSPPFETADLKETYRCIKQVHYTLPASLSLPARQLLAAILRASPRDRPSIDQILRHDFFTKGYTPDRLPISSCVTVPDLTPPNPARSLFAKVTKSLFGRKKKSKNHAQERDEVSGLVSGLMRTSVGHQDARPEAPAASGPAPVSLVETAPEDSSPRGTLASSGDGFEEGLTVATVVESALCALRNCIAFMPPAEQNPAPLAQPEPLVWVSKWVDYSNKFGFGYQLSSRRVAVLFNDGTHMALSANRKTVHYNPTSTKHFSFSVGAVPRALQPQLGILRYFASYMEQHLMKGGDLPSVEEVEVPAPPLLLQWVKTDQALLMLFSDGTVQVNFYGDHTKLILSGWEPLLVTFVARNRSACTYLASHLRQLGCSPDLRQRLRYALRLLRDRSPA
T11 sequence (Q02750 whole entry): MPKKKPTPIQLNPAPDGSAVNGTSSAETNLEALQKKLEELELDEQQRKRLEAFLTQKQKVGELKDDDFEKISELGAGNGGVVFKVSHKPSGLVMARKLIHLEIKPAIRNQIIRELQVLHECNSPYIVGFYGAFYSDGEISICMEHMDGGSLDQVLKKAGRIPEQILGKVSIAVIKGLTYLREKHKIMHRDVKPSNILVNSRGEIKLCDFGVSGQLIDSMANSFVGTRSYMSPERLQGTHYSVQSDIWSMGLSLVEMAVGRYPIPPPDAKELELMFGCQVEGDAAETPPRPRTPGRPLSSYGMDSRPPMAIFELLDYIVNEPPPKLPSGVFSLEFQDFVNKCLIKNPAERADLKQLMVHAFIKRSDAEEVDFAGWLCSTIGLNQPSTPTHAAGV
T15 sequence (P23443 whole entry): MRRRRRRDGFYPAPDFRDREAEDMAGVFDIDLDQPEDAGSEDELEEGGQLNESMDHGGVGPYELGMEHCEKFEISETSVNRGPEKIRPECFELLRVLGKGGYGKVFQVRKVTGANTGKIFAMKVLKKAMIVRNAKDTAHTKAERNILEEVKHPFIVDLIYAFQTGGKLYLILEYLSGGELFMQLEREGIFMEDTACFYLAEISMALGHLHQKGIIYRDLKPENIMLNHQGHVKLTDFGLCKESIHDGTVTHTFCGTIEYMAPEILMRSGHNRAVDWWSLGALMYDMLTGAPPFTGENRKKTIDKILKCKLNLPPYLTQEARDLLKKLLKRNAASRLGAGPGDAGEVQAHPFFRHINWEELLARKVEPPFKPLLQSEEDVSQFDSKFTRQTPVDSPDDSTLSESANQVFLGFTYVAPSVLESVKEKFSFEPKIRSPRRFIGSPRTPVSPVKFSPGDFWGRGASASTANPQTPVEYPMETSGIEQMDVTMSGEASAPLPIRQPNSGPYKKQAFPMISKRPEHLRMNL
T18 sequence (O75914 whole entry): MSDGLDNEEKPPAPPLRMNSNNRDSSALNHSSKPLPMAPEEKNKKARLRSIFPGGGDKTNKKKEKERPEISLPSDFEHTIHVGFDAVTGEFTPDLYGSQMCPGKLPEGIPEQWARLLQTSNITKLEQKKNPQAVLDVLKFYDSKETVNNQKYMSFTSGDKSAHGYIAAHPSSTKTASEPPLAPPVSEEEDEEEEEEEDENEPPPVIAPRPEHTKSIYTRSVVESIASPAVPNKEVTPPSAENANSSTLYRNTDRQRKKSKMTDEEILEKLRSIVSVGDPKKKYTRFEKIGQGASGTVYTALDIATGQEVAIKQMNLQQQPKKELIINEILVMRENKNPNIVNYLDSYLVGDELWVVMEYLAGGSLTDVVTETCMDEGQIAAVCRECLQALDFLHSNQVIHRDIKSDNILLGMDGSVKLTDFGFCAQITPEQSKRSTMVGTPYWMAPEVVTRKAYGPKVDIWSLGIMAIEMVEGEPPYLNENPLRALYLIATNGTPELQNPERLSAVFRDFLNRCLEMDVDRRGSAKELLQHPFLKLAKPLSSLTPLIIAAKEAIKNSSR
T4 sequence (P10721 26-976 D816H): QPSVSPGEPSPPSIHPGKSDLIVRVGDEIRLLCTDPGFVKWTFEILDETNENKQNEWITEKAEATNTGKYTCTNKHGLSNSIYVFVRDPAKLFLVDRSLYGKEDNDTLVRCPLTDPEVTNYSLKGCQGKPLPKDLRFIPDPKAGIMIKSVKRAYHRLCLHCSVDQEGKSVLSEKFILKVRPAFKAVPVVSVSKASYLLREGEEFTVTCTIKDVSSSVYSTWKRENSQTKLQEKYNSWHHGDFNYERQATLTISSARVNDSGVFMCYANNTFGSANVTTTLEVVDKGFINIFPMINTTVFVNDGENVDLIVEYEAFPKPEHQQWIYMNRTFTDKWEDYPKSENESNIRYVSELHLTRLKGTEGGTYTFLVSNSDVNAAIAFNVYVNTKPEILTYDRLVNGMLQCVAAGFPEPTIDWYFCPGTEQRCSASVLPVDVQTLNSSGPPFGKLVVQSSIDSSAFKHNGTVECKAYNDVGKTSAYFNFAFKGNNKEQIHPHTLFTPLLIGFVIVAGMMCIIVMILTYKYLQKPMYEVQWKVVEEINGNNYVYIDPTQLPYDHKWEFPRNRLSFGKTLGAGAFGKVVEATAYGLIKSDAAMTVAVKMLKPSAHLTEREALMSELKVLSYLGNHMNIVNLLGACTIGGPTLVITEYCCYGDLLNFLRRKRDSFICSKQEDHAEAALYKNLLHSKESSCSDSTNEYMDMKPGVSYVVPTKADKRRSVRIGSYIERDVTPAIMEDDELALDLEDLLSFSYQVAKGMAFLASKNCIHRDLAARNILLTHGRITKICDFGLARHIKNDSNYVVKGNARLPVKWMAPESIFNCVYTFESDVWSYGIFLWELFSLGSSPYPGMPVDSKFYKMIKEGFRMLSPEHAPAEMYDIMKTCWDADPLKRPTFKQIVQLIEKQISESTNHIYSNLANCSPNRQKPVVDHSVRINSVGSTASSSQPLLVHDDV
T16 sequence (Q13153 whole entry): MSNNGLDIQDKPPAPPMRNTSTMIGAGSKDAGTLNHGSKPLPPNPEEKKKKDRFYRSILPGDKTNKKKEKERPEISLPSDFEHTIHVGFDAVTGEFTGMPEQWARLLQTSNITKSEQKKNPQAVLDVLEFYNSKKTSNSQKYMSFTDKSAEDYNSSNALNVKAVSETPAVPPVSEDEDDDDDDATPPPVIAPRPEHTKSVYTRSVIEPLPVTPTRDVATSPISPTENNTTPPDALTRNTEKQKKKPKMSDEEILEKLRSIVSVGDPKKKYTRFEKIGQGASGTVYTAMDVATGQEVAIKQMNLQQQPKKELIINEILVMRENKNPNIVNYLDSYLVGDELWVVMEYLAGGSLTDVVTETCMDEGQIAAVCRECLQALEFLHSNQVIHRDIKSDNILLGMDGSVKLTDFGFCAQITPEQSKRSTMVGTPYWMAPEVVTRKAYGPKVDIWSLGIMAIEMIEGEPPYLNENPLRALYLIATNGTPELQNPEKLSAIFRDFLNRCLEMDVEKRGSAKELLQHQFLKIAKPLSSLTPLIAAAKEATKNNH
T21 sequence (P04629 33-796): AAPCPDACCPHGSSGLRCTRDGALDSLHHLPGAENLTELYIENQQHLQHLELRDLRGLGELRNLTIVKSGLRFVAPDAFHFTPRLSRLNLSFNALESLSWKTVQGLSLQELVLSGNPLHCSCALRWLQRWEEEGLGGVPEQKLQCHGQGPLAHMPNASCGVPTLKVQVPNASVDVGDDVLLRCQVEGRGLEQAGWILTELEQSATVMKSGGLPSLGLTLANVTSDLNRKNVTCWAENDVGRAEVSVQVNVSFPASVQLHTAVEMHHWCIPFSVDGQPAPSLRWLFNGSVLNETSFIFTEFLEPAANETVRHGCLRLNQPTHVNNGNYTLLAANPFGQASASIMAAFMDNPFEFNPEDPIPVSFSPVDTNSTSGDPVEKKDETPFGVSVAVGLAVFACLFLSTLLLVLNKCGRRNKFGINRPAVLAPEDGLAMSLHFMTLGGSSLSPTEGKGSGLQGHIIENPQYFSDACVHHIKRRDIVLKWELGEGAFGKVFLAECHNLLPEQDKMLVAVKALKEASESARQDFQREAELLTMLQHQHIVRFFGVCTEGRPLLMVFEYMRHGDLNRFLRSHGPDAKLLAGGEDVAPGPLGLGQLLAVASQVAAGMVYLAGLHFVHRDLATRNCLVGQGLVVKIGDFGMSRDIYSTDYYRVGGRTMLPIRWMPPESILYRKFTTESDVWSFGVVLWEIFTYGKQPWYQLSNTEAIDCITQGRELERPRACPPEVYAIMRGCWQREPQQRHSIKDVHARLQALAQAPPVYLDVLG
T2 sequence (Q06187 whole entry): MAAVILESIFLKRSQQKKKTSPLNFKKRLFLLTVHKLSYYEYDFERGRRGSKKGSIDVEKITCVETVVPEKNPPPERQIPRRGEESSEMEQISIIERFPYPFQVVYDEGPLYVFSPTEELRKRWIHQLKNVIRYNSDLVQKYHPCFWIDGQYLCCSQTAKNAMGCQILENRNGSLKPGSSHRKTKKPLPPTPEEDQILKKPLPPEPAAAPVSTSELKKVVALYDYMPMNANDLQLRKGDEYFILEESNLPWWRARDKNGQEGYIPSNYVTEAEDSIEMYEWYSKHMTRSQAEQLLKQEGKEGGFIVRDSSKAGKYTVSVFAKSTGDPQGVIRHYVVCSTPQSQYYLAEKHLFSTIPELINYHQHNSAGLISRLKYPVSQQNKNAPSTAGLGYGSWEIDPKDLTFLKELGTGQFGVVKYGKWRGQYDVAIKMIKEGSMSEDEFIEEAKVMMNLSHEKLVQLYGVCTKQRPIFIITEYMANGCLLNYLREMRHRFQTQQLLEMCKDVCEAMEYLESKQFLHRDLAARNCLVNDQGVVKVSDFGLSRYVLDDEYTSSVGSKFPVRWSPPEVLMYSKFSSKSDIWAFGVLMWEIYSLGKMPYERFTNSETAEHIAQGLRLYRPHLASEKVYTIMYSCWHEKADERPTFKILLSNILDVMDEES

O=S(=O)(Nc1cccc(-c2nc(CCO)sc2-c2ccnc(Nc3ccccc3)n2)c1F)c1c(F)cccc1F [8 (Na)]
pIC50 (P-MEK/Total MEK; Homo sapiens, 2 h, read-out: IC50 P-MEK/Total MEK): < 6.00 | Selectivity ratio (P-MEK/Total MEK; IC50 P-MEK/Total MEK divided by IC50 Phospho-Ser3-Cofilin/Total Cofilin): 10

CC(C)(C)c1nc(-c2cccc(NS(=O)(=O)c3c(F)cccc3F)c2F)c(-c2ccnc(Nc3ccccc3)n2)s1 [Compound 1, N-(3-(2-(tert-butyl)-5-(2-(phenylamino)pyrimidin-4-yl)thiazol-4-yl)-2-fluorophenyl)-2,6-difluorobenzenesulfonamide]
pIC50 [1]: 6.30 to 7.00 | activity at 5 µM (BTK(h)): 10 to 50% | activity at 5 µM (cKit(D816V)(h)): ≥ 50% | activity at 5 µM (cKit(D816H)(h)): 10 to 50% | activity at 5 µM (c-RAF(h)): 3 to 10% | activity at 5 µM (FGFR1(h)): ≥ 50% | activity at 5 µM (Flt1(h)): 10 to 50% | activity at 5 µM (IGF-1R(h), activated): ≥ 50% | activity at 5 µM (IKKα(h)): ≥ 50% | activity at 5 µM (LKB1(h)): ≥ 50% | activity at 5 µM (MEK1(h)): ≥ 50% | activity at 5 µM (MKK4(m)): ≥ 50% | activity at 5 µM (MRCKα(h)): ≥ 50% | activity at 5 µM (MRCKβ(h)): ≥ 50% | activity at 5 µM (p70S6K(h)): ≥ 50% | activity at 5 µM (PAK1(h)): ≥ 50% | activity at 5 µM (PAK4(h)): ≥ 50% | activity at 5 µM (PAK3(h)): ≥ 50% | activity at 5 µM (Plk3(h)): ≥ 50% | activity at 5 µM (SAPK2a(h)): ≥ 50% | activity at 5 µM (TrkA(h)): 10 to 50% | activity at 5 µM (TrkC(h)): ≥ 50% | activity at 5 µM (B-Raf(h)): 3 to 10% | activity at 5 µM (LIMK1(h)): < 3%
